Assay results from patent US10717733B2, “Haloallylamine indole and azaindole derivative inhibitors of lysyl oxidases and uses thereof” (PHARMAXIS LTD., priority 2016, dated 2020).
Where a name gives a salt, the structure may show the parent alone.

How the values were obtained:
Assay type in all cases: biochemical
[1] = target: Bovine LOX (Bos taurus (Bovine), UniProt P33072); assay: LOX inhibition, peroxidase-coupled Amplex Red amine oxidase assay; conditions: 30 min preincubation at 37° C., putrescine substrate
Bovine LOX, sequence (P33072 170-418): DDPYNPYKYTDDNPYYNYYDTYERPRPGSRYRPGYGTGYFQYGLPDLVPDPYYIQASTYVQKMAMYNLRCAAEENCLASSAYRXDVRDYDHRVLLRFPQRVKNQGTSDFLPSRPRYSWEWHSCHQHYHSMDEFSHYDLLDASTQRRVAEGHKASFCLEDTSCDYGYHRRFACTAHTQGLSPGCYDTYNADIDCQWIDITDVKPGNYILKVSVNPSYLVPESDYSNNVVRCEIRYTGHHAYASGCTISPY
How it was run: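 Bovine LOX in 1.2 M urea, 50 mM sodium borate pH 8.2 with 1 μM mofegiline and 0.5 mM pargyline; putrescine at twice KM (e.g. 20 mM for LOX) with Amplex Red/HRP. Fluorescence (ex 565/em 590 nm) read kinetically over 30 min at 37–45 °C; IC50 from slopes.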

[2] = target: Human LOXL2 (Homo sapiens (Human), UniProt Q9Y4K0); assay: LOXL2 inhibition, peroxidase-coupled Amplex Red amine oxidase assay; conditions: 30 min preincubation at 37° C., putrescine substrate
Human LOXL2, sequence (Q9Y4K0 26-774): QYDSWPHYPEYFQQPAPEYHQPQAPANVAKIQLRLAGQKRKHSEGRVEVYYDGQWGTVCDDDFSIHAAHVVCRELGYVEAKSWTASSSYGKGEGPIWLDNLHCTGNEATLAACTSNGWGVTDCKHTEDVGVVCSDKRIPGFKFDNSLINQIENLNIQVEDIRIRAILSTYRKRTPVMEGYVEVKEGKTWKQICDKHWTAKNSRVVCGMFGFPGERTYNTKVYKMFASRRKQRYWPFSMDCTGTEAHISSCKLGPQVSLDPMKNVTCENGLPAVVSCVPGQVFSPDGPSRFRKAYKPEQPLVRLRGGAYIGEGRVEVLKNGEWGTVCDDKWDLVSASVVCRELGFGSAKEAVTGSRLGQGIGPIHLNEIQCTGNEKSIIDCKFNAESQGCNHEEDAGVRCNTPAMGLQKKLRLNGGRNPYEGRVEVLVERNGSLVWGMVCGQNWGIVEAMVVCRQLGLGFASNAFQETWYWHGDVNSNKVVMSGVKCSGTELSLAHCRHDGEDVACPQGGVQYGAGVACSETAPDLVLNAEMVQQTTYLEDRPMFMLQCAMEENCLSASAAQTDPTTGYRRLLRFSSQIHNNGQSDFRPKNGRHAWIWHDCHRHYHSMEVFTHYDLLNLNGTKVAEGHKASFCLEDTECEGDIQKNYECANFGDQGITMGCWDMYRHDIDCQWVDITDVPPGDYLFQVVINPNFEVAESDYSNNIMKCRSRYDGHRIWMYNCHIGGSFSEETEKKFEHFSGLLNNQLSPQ
How it was run: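 Enzyme in 1.2 M urea, 50 mM sodium borate pH 8.2 with 1 μM mofegiline and 0.5 mM pargyline, preincubated 30 min at 37° C with compound (11-point CRC). Putrescine at twice KM (10 mM for LOXL2) with Amplex Red/HRP; fluorescence (ex 565, em 590) read kinetically 30 min; IC50 from slopes.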

[3] = target: human recombinant SSAO/VAP-1 (Homo sapiens (Human), UniProt Q16853); assay: Inhibition of human recombinant SSAO/VAP-1 amine oxidase activity; conditions: 30 min preincubation at 37° C., 600 μM benzylamine
human recombinant SSAO/VAP-1, sequence (Q16853 34-763): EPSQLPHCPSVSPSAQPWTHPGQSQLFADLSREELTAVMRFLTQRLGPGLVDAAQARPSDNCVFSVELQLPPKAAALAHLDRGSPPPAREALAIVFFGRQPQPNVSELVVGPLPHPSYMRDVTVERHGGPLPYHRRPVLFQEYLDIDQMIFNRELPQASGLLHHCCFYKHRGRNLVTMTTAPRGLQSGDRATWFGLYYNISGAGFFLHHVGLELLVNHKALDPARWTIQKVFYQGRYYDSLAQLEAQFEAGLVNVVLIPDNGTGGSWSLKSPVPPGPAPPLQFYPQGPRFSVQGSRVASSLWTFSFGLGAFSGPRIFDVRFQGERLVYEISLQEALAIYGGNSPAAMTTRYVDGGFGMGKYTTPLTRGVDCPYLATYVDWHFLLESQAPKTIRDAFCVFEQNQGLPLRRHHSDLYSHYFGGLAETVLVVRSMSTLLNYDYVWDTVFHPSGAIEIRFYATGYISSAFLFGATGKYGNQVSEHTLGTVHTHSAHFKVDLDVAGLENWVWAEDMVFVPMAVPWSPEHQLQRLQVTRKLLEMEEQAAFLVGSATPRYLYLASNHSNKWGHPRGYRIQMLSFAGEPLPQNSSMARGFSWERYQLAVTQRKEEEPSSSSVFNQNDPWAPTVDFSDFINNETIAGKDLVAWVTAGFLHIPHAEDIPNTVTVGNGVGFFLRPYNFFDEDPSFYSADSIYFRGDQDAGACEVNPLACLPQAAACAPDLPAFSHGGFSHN
How it was run: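 Purified SSAO/VAP-1 (residues 34-763, expressed in CHO Lec 8 cells; 0.25 μg/mL) preincubated 30 min at 37° C with compound in 0.1 M sodium phosphate pH 7.4. Reaction mix of 600 μM benzylamine, 120 μM Amplex Red and 1.5 U/mL HRP added; fluorescence (ex 565/em 590 nm) read every 2.5 min for 30 min; IC50 from kinetic slopes over 4-11 point curves.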

[4] = target: Recombinant human MAO-B (Homo sapiens (Human), UniProt P27338); assay: Inhibition of human recombinant MAO-B; conditions: benzylamine 100 μM
Recombinant human MAO-B, sequence (P27338 whole entry): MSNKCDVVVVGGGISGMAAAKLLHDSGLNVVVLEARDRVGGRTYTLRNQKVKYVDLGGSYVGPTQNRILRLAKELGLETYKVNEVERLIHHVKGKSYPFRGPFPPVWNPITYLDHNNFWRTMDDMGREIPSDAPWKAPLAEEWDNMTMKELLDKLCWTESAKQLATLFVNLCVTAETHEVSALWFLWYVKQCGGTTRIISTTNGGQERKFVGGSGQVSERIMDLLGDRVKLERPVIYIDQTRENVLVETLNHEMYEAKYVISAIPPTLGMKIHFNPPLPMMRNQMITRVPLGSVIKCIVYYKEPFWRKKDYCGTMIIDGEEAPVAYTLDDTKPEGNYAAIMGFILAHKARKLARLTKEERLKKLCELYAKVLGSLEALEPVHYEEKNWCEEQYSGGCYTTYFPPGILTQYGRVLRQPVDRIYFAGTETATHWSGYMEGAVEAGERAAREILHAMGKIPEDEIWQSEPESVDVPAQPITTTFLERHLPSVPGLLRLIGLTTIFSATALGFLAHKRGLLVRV
How it was run: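 Recombinant human MAO-B used as enzyme source (0.06 mg/mL, stated concentration). Run as for the human SSAO/VAP-1 assay, except benzylamine substrate at 100 μM.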

For Cc1c(-c2cccc(S(=O)(=O)N(C)C)c2)c2cc(Cl)ccc2n1C/C(F)=C/CN [Compound 62, (Z)-3-(1-(4-amino-2-fluorobut-2-en-1-yl)-5-chloro-2-methyl-1H-indol-3-yl)-N,N-dimethylbenzenesulfonamide], the IC50 [1] was > 300 nM, the IC50 [2] was < 300 nM and the IC50 [3] was > 3000 nM. For the same compound, the IC50 [4] was > 3000 nM.
With Cc1c(-c2cncc(S(=O)(=O)N(C)C)c2)c2ccccc2n1C/C(F)=C/CN [Compound 63, (Z)-5-(1-(4-amino-2-fluorobut-2-en-1-yl)-2-methyl-1H-indol-3-yl)-N,N-dimethylpyridine-3-sulfonamide] the IC50 [1] was > 300 nM, the IC50 [2] was < 300 nM and the IC50 [3] was > 3000 nM. For the same compound, the IC50 [4] was > 3000 nM.
For Cc1c(-c2cncc(S(=O)(=O)N(C)C)c2)c2cc(Cl)ccc2n1C/C(F)=C/CN [Compound 64, (Z)-5-(1-(4-amino-2-fluorobut-2-en-1-yl)-5-chloro-2-methyl-1H-indol-3-yl)-N,N-dimethylpyridine-3-sulfonamide], the IC50 [1] was > 300 nM, the IC50 [2] was < 300 nM and the IC50 [3] was > 3000 nM. The IC50 [4] was > 3000 nM.
With Cc1c(-c2cncc(S(C)(=O)=O)c2)c2cc(Cl)ccc2n1C/C(F)=C/CN [Compound 65, (Z)-4-(5-chloro-2-methyl-3-(5-(methylsulfonyl)pyridin-3-yl)-1H-indol-1-yl)-3-fluorobut-2-en-1-amine] the IC50 [1] was > 300 nM, the IC50 [2] was < 300 nM and the IC50 [3] was > 3000 nM. For the same compound, the IC50 [4] was > 3000 nM.
With CN(C)S(=O)(=O)c1cncc(-c2cn(C/C(F)=C/CN)c3ccc(Cl)cc23)c1 [Compound 66, (Z)-5-(1-(4-amino-2-fluorobut-2-en-1-yl)-5-chloro-1H-indol-3-yl)-N,N-dimethylpyridine-3-sulfonamide] the IC50 [1] was > 300 nM, the IC50 [2] was < 300 nM and the IC50 [3] was > 3000 nM. For the same compound, the IC50 [4] was > 3000 nM.
With Cc1c(-c2cncc(S(=O)(=O)N(C)C)c2)c2ccc(Cl)cc2n1C/C(F)=C/CN [Compound 67, (Z)-5-(1-(4-amino-2-fluorobut-2-en-l-yl)-6-chloro-2-methyl-1H-indol-3-yl)-N,N-dimethylpyridine-3-sulfonamide, Dihydrochloride] the IC50 [1] was > 300 nM, the IC50 [2] was < 300 nM and the IC50 [3] was > 3000 nM. For the same compound, the IC50 [4] was > 3000 nM.
With COc1ccc2c(n1)c(-c1cccc(SC)c1)c(C)n2C/C(F)=C/CN [Compound 68, (Z)-3-fluoro-4-(5-methoxy-2-methyl-3-(3-(methylthio)phenyl)-1H-pyrrolo[3,2-b]pyridin-1-yl)but-2-en-1-amine Dihydrochloride] the IC50 [1] was > 300 nM, the IC50 [2] was < 300 nM and the IC50 [3] was > 3000 nM. For the same compound, the IC50 [4] was > 3000 nM.
In the case of COc1ccc2c(n1)c(-c1cccc(S(C)(=O)=O)c1)c(C)n2C/C(F)=C/CN [Compound 69, (Z)-3-fluoro-4-(5-methoxy-2-methyl-3-(3-(methylsulfonyl)phenyl)-1H-pyrrolo[3,2-b]pyridin-1-yl)but-2-en-1-amine Dihydrochloride], the IC50 [1] is reported as > 300 nM, the IC50 [2] is reported as < 300 nM and the IC50 [3] is reported as > 3000 nM. For the same compound, the IC50 [4] was > 3000 nM.
CNS(=O)(=O)c1cncc(-c2c(C)n(C/C(F)=C/CN)c3ccc(Cl)cc23)c1 [Compound 70, (Z)-5-(1-(4-amino-2-fluorobut-2-en-1-yl)-5-chloro-2-methyl-1H-indol-3-yl)-N-methylpyridine-3-sulfonamide] was tested, and the IC50 [1] was > 300 nM, the IC50 [2] was < 300 nM and the IC50 [3] was > 3000 nM. For the same compound, the IC50 [4] was > 3000 nM.
Cc1c(-c2cncc(S(=O)(=O)N(C)C)c2)c2cc(F)ccc2n1C/C(F)=C/CN [Compound 71, (Z)-5-(1-(4-amino-2-fluorobut-2-en-1-yl)-5-fluoro-2-methyl-1H-indol-3-yl)-N,N-dimethylpyridine-3-sulfonamide] was tested, and the IC50 [1] was > 300 nM, the IC50 [2] was < 300 nM and the IC50 [3] was > 3000 nM. The IC50 [4] was > 3000 nM.
Cc1c(-c2cncc(S(=O)(=O)N(C)C)c2)c2ncc(Cl)cc2n1C/C(F)=C/CN [Compound 72, (Z)-5-(1-(4-amino-2-fluorobut-2-en-1-yl)-6-chloro-2-methyl-1H-pyrrolo[3,2-b]pyridin-3-yl)-N,N-dimethylpyridine-3-sulfonamide] was tested, and the IC50 [1] was > 300 nM, the IC50 [2] was < 300 nM and the IC50 [3] was > 3000 nM. The IC50 [4] was > 3000 nM.
Cc1c(-c2cncc(S(=O)(=O)N(C)C)c2)c2cc(Cl)cnc2n1C/C(F)=C/CN [Compound 73, (Z)-5-(1-(4-amino-2-fluorobut-2-en-1-yl)-5-chloro-2-methyl-1H-pyrrolo[2,3-b]pyridin-3-yl)-N,N-dimethylpyridine-3-sulfonamide] was tested, and the IC50 [1] was > 300 nM, the IC50 [2] was < 300 nM and the IC50 [3] was > 3000 nM. The IC50 [4] was > 3000 nM.
For Cc1c(-c2cncc(S(=O)(=O)N(C)C)c2)c2cccc(Cl)c2n1C/C(F)=C/CN [Compound 74, (Z)-5-(1-(4-amino-2-fluorobut-2-en-1-yl)-7-chloro-2-methyl-1H-indol-3-yl)-N,N-dimethylpyridine-3-sulfonamide], the IC50 [1] was > 300 nM, the IC50 [2] was < 300 nM and the IC50 [3] was > 3000 nM. The IC50 [4] was > 3000 nM.
In the case of Cc1c(-c2cncc(S(=O)(=O)N(C)C)c2)c2c(Cl)cccc2n1C/C(F)=C/CN [Compound 75, (Z)-5-(1-(4-amino-2-fluorobut-2-en-1-yl)-4-chloro-2-methyl-1H-indol-3-yl)-N,N-dimethylpyridine-3-sulfonamide], the IC50 [1] is reported as > 300 nM, the IC50 [2] is reported as < 300 nM and the IC50 [3] is reported as > 3000 nM. For the same compound, the IC50 [4] was > 3000 nM.
With Cc1c(-c2ccncc2)c2cc(Cl)ccc2n1C/C(F)=C/CN [Compound 76, (Z)-4-(5-chloro-2-methyl-3-(pyridin-4-yl)-1H-indol-1-yl)-3-fluorobut-2-en-1-amine] the IC50 [1] was > 300 nM, the IC50 [2] was < 300 nM and the IC50 [3] was > 3000 nM. For the same compound, the IC50 [4] was > 3000 nM.
Cc1c(-c2cccnc2)c2cc(Cl)ccc2n1C/C(F)=C/CN [Compound 77, (Z)-4-(5-chloro-2-methyl-3-(pyridin-3-yl)-1H-indol-1-yl)-3-fluorobut-2-en-1-amine] was tested, and the IC50 [1] was > 300 nM, the IC50 [2] was < 300 nM and the IC50 [3] was > 3000 nM. The IC50 [4] was > 3000 nM.
For Cc1c(-c2cccc(S(=O)(=O)N(C)C)n2)c2cc(Cl)ccc2n1C/C(F)=C/CN [Compound 78, (Z)-6-(1-(4-amino-2-fluorobut-2-en-1-yl)-5-chloro-2-methyl-1H-indol-3-yl)-N,N-dimethylpyridine-2-sulfonamide], the IC50 [1] was > 300 nM, the IC50 [2] was < 300 nM and the IC50 [3] was > 3000 nM. For the same compound, the IC50 [4] was > 3000 nM.
In the case of Cc1c(-c2cncc(S(=O)(=O)N(C)C)c2)c2cc(C3CC3)ccc2n1C/C(F)=C/CN [Compound 79, (Z)-5-(1-(4-amino-2-fluorobut-2-en-1-yl)-5-cyclopropyl-2-methyl-1H-indol-3-yl)-N,N-dimethylpyridine-3-sulfonamide], the IC50 [1] is reported as > 300 nM, the IC50 [2] is reported as < 300 nM and the IC50 [3] is reported as > 3000 nM. The IC50 [4] was > 3000 nM.
Cc1c(-c2cncnc2)c2cc(Cl)ccc2n1C/C(F)=C/CN [Compound 80, (Z)-4-(5-chloro-2-methyl-3-(pyrimidin-5-yl)-1H-indol-1-yl)-3-fluorobut-2-en-1-amine] was tested, and the IC50 [1] was > 300 nM, the IC50 [2] was < 300 nM and the IC50 [3] was > 3000 nM. The IC50 [4] was > 3000 nM.
For Cc1c(-c2ccncc2)c2cc(S(=O)(=O)N(C)C)ccc2n1C/C(F)=C/CN [Compound 81, (Z)-1-(4-amino-2-fluorobut-2-en-1-yl)-N,N,2-trimethyl-3-(pyridin-4-yl)-1H-indole-5-sulfonamide], the IC50 [1] was > 300 nM, the IC50 [2] was < 300 nM and the IC50 [3] was > 3000 nM. The IC50 [4] was > 3000 nM.
Cc1ccc(S(=O)(=O)N(C)C)cc1-c1c(C)n(C/C(F)=C/CN)c2c(F)cc(Cl)cc12 [Compound 82, (Z)-3-(1-(4-amino-2-fluorobut-2-en-1-yl)-5-chloro-7-fluoro-2-methyl-1H-indol-3-yl)-N,N,4-trimethylbenzenesulfonamide] was tested, and the IC50 [1] was > 300 nM, the IC50 [2] was < 300 nM and the IC50 [3] was > 3000 nM. The IC50 [4] was > 3000 nM.
In the case of Cc1c(-c2cncc(S(N)(=O)=O)c2)c2cc(Cl)ccc2n1C/C(F)=C/CN [Compound 83, (Z)-5-(1-(4-amino-2-fluorobut-2-en-1-yl)-5-chloro-2-methyl-1H-indol-3-yl)pyridine-3-sulfonamide], the IC50 [1] is reported as > 300 nM, the IC50 [2] is reported as < 300 nM and the IC50 [3] is reported as > 3000 nM. The IC50 [4] was > 3000 nM.
In the case of Cc1c(-c2cncc(S(=O)(=O)N(C)C)c2)c2cc(OC(F)(F)F)ccc2n1C/C(F)=C/CN [Compound 85, (Z)-5-(1-(4-amino-2-fluorobut-2-en-1-yl)-2-methyl-5-(trifluoromethoxy)-1H-indol-3-yl)-N,N-dimethyl-pyridine-3-sulfonamide Dihydrochloride], the IC50 [1] is reported as > 300 nM, the IC50 [2] is reported as < 300 nM and the IC50 [3] is reported as > 3000 nM. For the same compound, the IC50 [4] was > 3000 nM.
For Cc1c(-c2ccccc2)c2cc(S(=O)(=O)N(C)C)ccc2n1C/C(F)=C/CN [Compound 86, (Z,)-1-(4-amino-2-fluorobut-2-en-1-yl)-N,N,2-trimethyl-3-phenyl-1H-indole-5-sulfonamide], the IC50 [1] was > 300 nM, the IC50 [2] was < 300 nM and the IC50 [3] was > 3000 nM. For the same compound, the IC50 [4] was > 3000 nM.
In the case of Cc1c(-c2ccccc2)c2cc(S(C)(=O)=O)ccc2n1C/C(F)=C/CN [Compound 87, (Z)-3-fluoro-4-(2-methyl-5-(methylsulfonyl)-3-phenyl-1H-indol-1-yl)but-2-en-1-amine], the IC50 [1] is reported as > 300 nM, the IC50 [2] is reported as < 300 nM and the IC50 [3] is reported as > 3000 nM. For the same compound, the IC50 [4] was > 3000 nM.
